Measured values as given in ChEMBL document CHEMBL3856269, “Anti-inflammatory activity effect of 2-substituted-1,4,5,6-tetrahydrocyclopenta[b]pyrrole on TPA-induced skin inflammation in mice” (2016).
Calls of active or inactive are those of the source. No cut-off for these calls is given here.

Columns and labels:
Assay type in all cases: functional
Mus musculus [1] = assay: Anti-inflammatory activity in TPA-induced Balb/c mouse ear edema model assessed as reduction in TPA-induced ear edema at 0.75 uM administered topically 6 mins prior to TPA administration measured after 6 hrs relative to control; design: scale not given: the % may be the effect or the level left
Mus musculus [2] = assay: Anti-inflammatory activity in Balb/c mouse assessed as reduction in TPA-induced hyperkeratosis at 0.75 uM administered topically 6 mins prior to TPA administration measured after 6 hrs by hematoxylin and eosin staining based microscopic analysis
Mus musculus [3] = assay: Anti-inflammatory activity in Balb/c mouse assessed as reduction in TPA-induced epidermal hyperplasia at 0.75 uM administered topically 6 mins prior to TPA administration measured after 6 hrs by hematoxylin and eosin staining based microscopic analysis
Mus musculus [4] = assay: Anti-inflammatory activity in Balb/c mouse assessed as reduction in TPA-induced dense dermal leukocyte infiltration at 0.75 uM administered topically 6 mins prior to TPA administration measured after 6 hrs by hematoxylin and eosin staining based microscopic analysis
Mus musculus [5] = assay: In vivo inhibition of IKK-mediated NF-kB activation in Balb/c mouse assessed as decrease in TPA-induced IL-1beta expression at 0.75 uM administered topically 6 mins prior to TPA administration measured after 6 hrs by immunohistochemical analysis
Mus musculus [6] = assay: In vivo inhibition of IKK-mediated NF-kB activation in Balb/c mouse assessed as decrease in TPA-induced IL-6 expression at 0.75 uM administered topically 6 mins prior to TPA administration measured after 6 hrs by immunohistochemical analysis
Mus musculus [7] = assay: In vivo inhibition of IKK-mediated NF-kB activation in Balb/c mouse assessed as decrease in TPA-induced TNFalpha expression at 0.75 uM administered topically 6 mins prior to TPA administration measured after 6 hrs by immunohistochemical analysis
Mus musculus [8] = assay: In vivo inhibition of IKK-mediated NF-kB activation in Balb/c mouse assessed as decrease in TPA-induced COX2 expression at 0.75 uM administered topically 6 mins prior to TPA administration measured after 6 hrs by immunohistochemical analysis
Mus musculus [9] = assay: In vivo inhibition of IKK-mediated NF-kB activation in Balb/c mouse assessed as decrease in TPA-induced p65 expression at 0.75 uM administered topically 6 mins prior to TPA administration measured after 6 hrs by immunohistochemical analysis
Mus musculus [10] = assay: In vivo inhibition of IKK-mediated NF-kB activation in Balb/c mouse assessed as decrease in TPA-induced phospho-Ser536 p65 expression at 0.75 uM administered topically 6 mins prior to TPA administration measured after 6 hrs by immunohistochemical analysis
Mus musculus [11] = assay: Potency index, ratio of compound to celecoxib potency for reduction in TPA-induced ear edema in Balb/c mouse
Mus musculus [12] = assay: In vivo inhibition of IKK-mediated NF-kB activation in Balb/c mouse assessed as decrease in TPA-induced phosphorylation of IKBalpha at Ser-32 residue at 0.75 uM administered topically 6 mins prior to TPA administration measured after 6 hrs by immunohistochemical analysis
Mus musculus [13] = assay: In vivo inhibition of IKK activation in Balb/c mouse at 0.75 uM administered topically 6 mins prior to TPA administration measured after 6 hrs by immunohistochemical analysis

Row | SMILES | Activity (Mus musculus [1]) | also measured
1 | c1ccc(-c2cc3c(n2-c2ccccc2)CC(c2ccccc2)C3)cc1 (configuration not stated) | 16.09% | –
2 | c1ccc(CCCn2c(-c3ccccc3)cc3c2CCC3)cc1 | -13.56% | –
3 | Brc1ccc(-n2c(-c3ccccc3)cc3c2CCC3)cc1 | 15.96% | –
4 | Clc1ccccc1-n1c(-c2ccccc2)cc2c1CCC2 | -6.78% | –
5 | Cc1ccc(-c2cc(C(F)(F)F)nn2-c2ccc(S(N)(=O)=O)cc2)cc1 [CELECOXIB] | 17.95% | Activity (Mus musculus [2]): Active; Activity (Mus musculus [3]): Active; Activity (Mus musculus [4]): Active; inhibition (Mus musculus [5]): Active; inhibition (Mus musculus [6]): Active; inhibition (Mus musculus [7]): Active; inhibition (Mus musculus [8]): Active; inhibition (Mus musculus [9]): Active; inhibition (Mus musculus [10]): Active
6 | c1ccc(-c2cc3c([nH]2)CCC3)cc1 | 10.23% | –
7 | c1ccc(-c2cc3c(n2C2CCCCC2)CCC3)cc1 | 19.02% | –
8 | COCCCn1c(-c2ccccc2)cc2c1CCC2 | 1.46% | –
9 | Clc1ccc(-n2c(-c3ccccc3)cc3c2CCC3)cc1 | 19.41% | –
10 | COc1ccc(Cn2c(-c3ccc(C)cc3)cc3c2CCC3)cc1 | 7.71% | –
11 | c1ccc(Cn2c(-c3ccccc3)cc3c2CCC3)cc1 | 25.66% | –
12 | COc1ccc(-c2cc3c([nH]2)CCC3)cc1 | 17.55% | –
13 | CC(C)Cn1c(-c2ccccc2)cc2c1CCC2 | 6.91% | –
14 | Cc1ccc(-c2cc3c(n2-c2ccccc2)CCC3)cc1 | 0.53% | –
15 | C#CCn1c(-c2ccc(C)cc2)cc2c1CCC2 | 4.92% | –
16 | c1ccc(CCn2c(-c3ccccc3)cc3c2CCC3)cc1 | -1.86% | –
17 | C#CCn1c(-c2ccccc2)cc2c1CCC2 | 8.77% | –
18 | c1ccc(-c2cc3c(n2C2CC2)CCC3)cc1 | 20.88% | –
19 | O=[N+]([O-])c1ccc(-n2c(-c3ccccc3)cc3c2CCC3)cc1 | -12.9% | –
20 | CC(C)(C)c1cc2c(n1-c1ccccc1)CCC2 | -0.53% | –
21 | COc1ccc(Cn2c(-c3ccccc3)cc3c2CCC3)cc1 | 2.93% | –
22 | CCCCn1c(-c2ccccc2)cc2c1CCC2 | -9.17% | –
23 | CCn1c(-c2ccccc2)cc2c1CCC2 | 13.56% | –
24 | CC(C)(C)c1cc2c([nH]1)CCC2 | 9.71% | –
25 | CCCn1c(-c2ccccc2)cc2c1CCC2 | 57.31% | Ratio (Mus musculus [11]): 3.2; Activity (Mus musculus [2]): Active; Activity (Mus musculus [3]): Active; Activity (Mus musculus [4]): Active; inhibition (Mus musculus [5]): Active; inhibition (Mus musculus [6]): Active; inhibition (Mus musculus [7]): Active; inhibition (Mus musculus [8]): Active; inhibition (Mus musculus [9]): Active; inhibition (Mus musculus [10]): Active; inhibition (Mus musculus [12]): Active; inhibition (Mus musculus [13]): Active
26 | c1ccc(-c2cc3c(n2-c2ccccc2)CCC3)cc1 | -0.93% | –
